Patent US9067937B2 (priority 2012, dated 2015)
Structures can show the parent of a compound that is named as a salt.

Key:
MELK = MELK (Homo sapiens, UniProt Q14680); assay: Kinase assay (IMAP fluorescence polarization, FITC-labeled histone H3 peptide); format: biochemical; conditions: 50 micro-M ATP
Procedure: MELK activity was determined in the presence or absence of compounds using fluorescein isothiocyanate-labeled (FITC-labeled) histone H3 peptide as a substrate. […] The serially diluted compounds, 0.8 ng/micro-L […] (Carna Biosciences) and 100 nM FITC-labeled histone H3 peptide were reacted in a reaction buffer (20 mM HEPES, 0.01% Tween-20, 0.3 mM MgCl2, 2 mM dithiothreitol, 50 micro-M ATP, pH 7.4) at room temperature for 1 hour. The reaction was stopped by the addition of three fold assay volume of progressive binding solution. […] IC50 values were calculated by nonlinear four parameter fit using SigmaPlot, version 10.0 (Systat Software, Inc.).

22Rv1 cells = assay: Cell-based assay, anti-proliferative activity (Cell Counting Kit-8, 72 hours); set-up: species or system human; conditions: Homo sapiens, 22Rv1, 72 h, read-out: IC50 (μM) (22Rvl)
Procedure: (§1) Active candidate inhibitors against MELK were evaluated for their target-specific cytotoxicity using 22Rv1, T47D, A549, DU4475 and HT-1197 cells was used for negative control. 100 micro-L of cell suspension was seeded onto 96-well microtiter plate (ViewPlate-96FTC, PerkinElmer). The initial cell concentration of 22Rv1, T47D, A549, DU4475, and HT1197 were 3,000 cells/well, 2,000 cells/well and 2,500 cells/well, respectively. Cellular growth was determined using Cell Counting Kit-8 (DOJINDO) at 72 hours after the exposure of the candidate inhibitors. […] Accurate IC50 values were calculated as described previously.

A549 cells = assay: as above; set-up: species or system human; conditions: Homo sapiens, A549, 72 h, read-out: IC50 (μM) (A549)
Procedure: as §1

DU4475 cells = assay: as above; set-up: species or system human; conditions: Homo sapiens, DU-4475, 72 h, read-out: IC50 (μM) (DU4475)
Procedure: as §1

T47D cells = assay: as above; set-up: species or system human; conditions: Homo sapiens, T47D, 72 h, read-out: IC50 (μM) (T47D)
Procedure: as §1

HT1197 cells = assay: Cell-based assay, anti-proliferative activity, MELK-negative control (Cell Counting Kit-8, 72 hours); set-up: species or system human; conditions: Homo sapiens, HT1197, 72 h, read-out: IC50 (μM) (HTll97)
Procedure: as §1, with “100” for “Active candidate inhibitors against MELK were evaluated for their target-specific cytotoxicity using 22Rv1, T47D, A549, DU4475 and HT-1197 cells was used for negative control. 100”

Chain of MELK (Q14680 whole entry, looked up): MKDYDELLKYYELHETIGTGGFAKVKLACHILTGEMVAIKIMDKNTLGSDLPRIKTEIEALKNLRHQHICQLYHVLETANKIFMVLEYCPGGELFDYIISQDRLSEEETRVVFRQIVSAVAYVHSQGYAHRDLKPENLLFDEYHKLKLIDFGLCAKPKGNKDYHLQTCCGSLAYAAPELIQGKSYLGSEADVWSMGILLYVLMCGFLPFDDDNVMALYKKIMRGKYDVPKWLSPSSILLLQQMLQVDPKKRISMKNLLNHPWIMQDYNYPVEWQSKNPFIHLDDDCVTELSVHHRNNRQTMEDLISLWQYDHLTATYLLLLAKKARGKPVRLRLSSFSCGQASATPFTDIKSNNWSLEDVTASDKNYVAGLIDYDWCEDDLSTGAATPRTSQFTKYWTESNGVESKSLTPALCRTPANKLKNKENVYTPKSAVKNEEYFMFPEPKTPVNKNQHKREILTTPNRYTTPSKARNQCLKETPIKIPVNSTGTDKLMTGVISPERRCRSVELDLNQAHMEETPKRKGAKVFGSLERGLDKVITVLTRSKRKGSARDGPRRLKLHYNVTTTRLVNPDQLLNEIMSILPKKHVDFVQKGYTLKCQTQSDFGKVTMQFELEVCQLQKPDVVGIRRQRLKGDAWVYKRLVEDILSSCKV

| SMILES | IC50 (MELK) | IC50 (22Rv1 cells) | IC50 (A549 cells) | IC50 (DU4475 cells) | IC50 (T47D cells) | IC50 (HT1197 cells) |
| --- | --- | --- | --- | --- | --- | --- |
| CN(C)C[C@H]1CC[C@H](Nc2c(S(C)(=O)=O)cnc3ccc(-c4cc(Cl)c(O)c(Cl)c4)nc23)CC1 [Example 12, 2,6-Dichloro-4-(8-{trans-4-[(dimethylamino)methyl]cyclohexylamino}-7-(methylsulfonyl)-1,5-naphthyridin-2-yl)phenol dihydrochloride] | 0.001 µM | 0.019 µM | 0.053 µM | 0.0045 µM | 0.019 µM | 0.46 µM |
| CN(C)C[C@H]1CC[C@H](Nc2c(S(C)(=O)=O)cnc3ccc(-c4cc(F)c(O)c(Cl)c4)nc23)CC1 [Example 13, 6-(3-Chloro-5-fluoro-4-hydroxyphenyl)-4-({trans-4-[(dimethylamino)methyl]cyclohexyl}-amino)-3-methylsulfonyl-1,5-naphthyridine dihydrochloride] | 0.0014 µM | 0.019 µM | 0.073 µM | 0.0068 µM | 0.013 µM | 0.32 µM |
| COc1cc(-c2ccc3ncc(S(C)(=O)=O)c(N[C@H]4CC[C@H](CN(C)C)CC4)c3n2)cc(Cl)c1O [Example 14, 6-(3-Chloro-4-hydroxy-5-methoxyphenyl)-4-{trans-4-[(dimethylamino)methyl]-cyclohexylamino}-3-methylsulfonyl-1,5-naphthyridine-dihydrochloride] | 0.0009 µM | 0.05 µM | 0.033 µM | 0.0096 µM | 0.027 µM | 0.14 µM |
| CN(C)[C@H]1CC[C@H](Nc2c(S(C)(=O)=O)cnc3ccc(-c4cc(Cl)c(O)c(Cl)c4)nc23)CC1 [Example 15, 2,6-Dichloro-4-{8-[trans-4-(dimethylamino)cyclohexylamino]-7-(methylsulfonyl)-1,5-naphthyridin-2-yl}phenol dihydrochloride] | 0.0005 µM | 0.026 µM | 0.092 µM | 0.0027 µM | 0.018 µM | 2.2 µM |
| CN(C)Cc1ccc(Nc2c(S(C)(=O)=O)cnc3ccc(-c4cc(Cl)c(O)c(Cl)c4)nc23)cc1 [Example 16, 2,6-Dichloro-4-(8-{4-[(dimethylamino)methyl]phenylamino}-7-(methylsulfonyl)-1,5-naphthyridin-2-yl)phenol dihydrochloride] | 0.0028 µM | 0.17 µM | 0.47 µM | 0.031 µM | 0.078 µM | 4.4 µM |
| CN(C)Cc1ccc(Nc2c(S(C)(=O)=O)cnc3ccc(-c4cc(F)c(O)c(Cl)c4)nc23)cc1 [Example 17, 2-Chloro-4-(8-{4-[(dimethylamino)methyl]phenylamino}-7-(methylsulfonyl)-1,5-naphthyridin-2-yl)-6-fluorophenol dihydrochloride] | 0.0081 µM | 0.33 µM | 0.83 µM | 0.064 µM | 0.13 µM | 6.6 µM |
| COc1cc(-c2ccc3ncc(S(C)(=O)=O)c(Nc4ccc(CN(C)C)cc4)c3n2)cc(Cl)c1O [Example 18, 2-Chloro-4-(8-{4-[(dimethylamino)methyl]phenylamino}-7-(methylsulfonyl)-1,5-naphthyridin-2-yl)-6-methoxyphenol dihydrochloride] | 0.005 µM | 1 µM | 0.69 µM | 0.31 µM | 0.32 µM | 3.8 µM |
| CC(=O)c1cnc2ccc(-c3cc(Cl)c(O)c(Cl)c3)nc2c1Nc1cccc(CCN2CCCC2)c1 [Example 19, 1-[6-(3,5-Dichloro-4-hydroxyphenyl)-4-{3-[2-(pyrrolidin-1-yl)ethyl]phenylamino}-1,5-naphthyridin-3-yl]ethanone dihydrochloride] | 0.032 µM | 0.63 µM | 0.14 µM | 0.11 µM | 0.59 µM | 7 µM |
| CC(=O)c1cnc2ccc(-c3cc(F)c(O)c(Cl)c3)nc2c1Nc1cccc(CCN2CCCC2)c1 [Example 20, 1-[6-(3-Chloro-5-fluoro-4-hydroxyphenyl)-4-{3-[2-(pyrrolidin-1-yl)ethyl]phenylamino}-1,5-naphthyridin-3-yl]ethanone dihydrochloride] | 0.14 µM | 0.81 µM | 0.31 µM | 0.21 µM | 0.5 µM | 4.8 µM |
| CC(=O)c1cnc2ccc(-c3cc(Cl)c(O)c(Cl)c3)nc2c1Nc1ccc(OCCN(C)C)nc1 [Example 21, 1-[6-(3,5-Dichloro-4-hydroxyphenyl)-4-{6-[2-(dimethylamino)ethoxy]pyridin-3-ylamino}-1,5-naphthyridin-3-yl)ethanone dihydrochloride] | 0.0046 µM | 0.27 µM | 0.21 µM | 0.096 µM | 0.1 µM | 2.3 µM |
| CC(=O)c1cnc2ccc(-c3cc(F)c(O)c(Cl)c3)nc2c1Nc1ccc(OCCN(C)C)nc1 [Example 22, 1-[6-(3-Chloro-5-fluoro-4-hydroxyphenyl)-4-{6-[2-(dimethylamino)ethoxy]pyridin-3-ylamino}-1,5-naphthyridin-3-yl)ethanone dihydrochloride] | 0.015 µM | 0.35 µM | 0.29 µM | 0.31 µM | 0.1 µM | 3.5 µM |
| COc1cc(-c2ccc3ncc(C(C)=O)c(Nc4ccc(OCCN(C)C)nc4)c3n2)cc(Cl)c1O [Example 23, 1-[6-(3-Chloro-4-hydroxy-5-methoxyphenyl)-4-{6-[2-(dimethylamino)ethoxy]pyridin-3-ylamino}-1,5-naphthyridin-3-yl]ethanone dihydrochloride] | 0.0089 µM | 1.3 µM | 0.47 µM | 0.41 µM | 0.38 µM | 8.9 µM |
| CN(C)CCOc1ccc(Nc2c(S(C)(=O)=O)cnc3ccc(-c4cc(Cl)c(O)c(Cl)c4)nc23)cn1 [Example 24, 2,6-Dichloro-4-(8-{6-[2-(dimethylamino)ethoxy]pyridin-3-ylamino}-7-(methylsulfonyl)-1,5-naphthyridin-2-yl)phenol hydrochloride] | 0.0053 µM | 1.8 µM | 5.1 µM | 0.38 µM | 0.58 µM | 15 µM |
| CN(C)CCOc1ccc(Nc2c(S(C)(=O)=O)cnc3ccc(-c4cc(F)c(O)c(Cl)c4)nc23)cn1 [Example 25, 2-Chloro-4-(8-{6-[2-(dimethylamino)ethoxy]pyridin-3-ylamino}-7-(methylsulfonyl)-1,5-naphthyridin-2-yl)-6-fluorophenol dihydrochloride] | 0.019 µM | 2.8 µM | 5.9 µM | 0.74 µM | 0.7 µM | 21 µM |
| COc1cc(-c2ccc3ncc(S(C)(=O)=O)c(Nc4ccc(OCCN(C)C)nc4)c3n2)cc(Cl)c1O [Example 26, 2-Chloro-4-(8-(6-(2-(dimethylamino)-ethoxy)pyridin-3-ylamino)-7-(methylsulfonyl)-1,5-naphthyridin-2-yl)-6-methoxyphenol dihydrochloride] | 0.01 µM | 4.1 µM | 3.1 µM | 1.6 µM | 1 µM | 15 µM |
| CC(=O)c1cnc2ccc(-c3cc(Cl)c(O)c(Cl)c3)nc2c1NCC1CCN(C)CC1 [Example 27, 1-(6-(3,5-Dichloro-4-hydroxyphenyl)-4-((1-methylpiperidin-4-yl)methylamino)-1,5-naphthyridin-3-yl)ethanone dihydrochloride] | 0.0007 µM | 0.1 µM | 0.11 µM | 0.1 µM | 0.079 µM | 2 µM |
| CC(=O)c1cnc2ccc(-c3cc(Cl)c(O)c(Cl)c3)nc2c1Nc1ccc(CCN(C)C)cc1 [Example 29, 1-[6-(3,5-Dichloro-4-hydroxyphenyl)-4-{4-[2-(dimethylamino)ethyl]phenylamino}-1,5-naphthyridin-3-yl)ethanone dihydrochloride] | 0.0026 µM | 0.084 µM | 0.11 µM | 0.028 µM | 0.085 µM | 0.68 µM |
| CC(=O)c1cnc2ccc(-c3cc(F)c(O)c(Cl)c3)nc2c1Nc1ccc(CCN(C)C)cc1 [Example 30, 1-[6-(3-Chloro-5-fluoro-4-hydroxyphenyl)-4-{4-[2-(dimethylamino)ethyl]phenylamino}-1,5-naphthyridin-3-yl)ethanone dihydrochloride] | 0.0059 µM | 0.17 µM | 0.14 µM | 0.041 µM | 0.11 µM | 1.2 µM |
